{"source": "patent US9850283B2", "about": "“Macrocyclic inhibitors of the PD-1/PD-L1 and CD80(B7-1)/PD-L1 protein/protein interactions” (BRISTOL-MYERS SQUIBB COMPANY, priority 2013, dated 2017)", "target": "T1, Human PD-L1/PD-1 (Homo sapiens, UniProt Q9NZQ7)", "T1 construct": "made in house; host or cells: HEK293T", "T1 sequence (Q9NZQ7 with tags, fused parts or gaps)": "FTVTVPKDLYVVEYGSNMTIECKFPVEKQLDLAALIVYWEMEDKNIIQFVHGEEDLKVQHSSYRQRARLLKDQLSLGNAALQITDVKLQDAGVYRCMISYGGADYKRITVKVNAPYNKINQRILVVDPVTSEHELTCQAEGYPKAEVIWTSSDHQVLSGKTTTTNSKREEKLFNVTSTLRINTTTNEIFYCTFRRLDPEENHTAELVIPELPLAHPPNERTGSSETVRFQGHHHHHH", "test": "HTRF PD-1-Ig/PD-L1-His binding assay (human PD-L1)", "details": "read-out: HTRF Human PD-L1/PD-1 Binding Assay IC50", "from_the_text": "The ability of the macrocyclic peptides of the present disclosure to bind to PD-L1 was investigated using a PD-1/PD-L1 Homogenous Time-Resolved Fluorescence (HTRF) binding assay.\nHomogenous Time-Resolved Fluorescence (HTRF) Assays of Binding of Soluble PD-1 to Soluble PD-L1. Soluble PD-1 and soluble PD-L1 refers to proteins with carboxyl-end truncations that remove the transmembrane-spanning regions and are fused to heterologous sequences, specifically the Fc portion of the human immunoglobuling G sequence (Ig) or the hexahistidine epitope tag (His). All binding studies were performed in an HTRF assay buffer consisting of dPBS supplemented with 0.1% (w/v) bovine serum albumin and 0.05% (v/v) Tween-20. […] PD-L1 fusion proteins from either human, cynomologous macaques, or mouse were used. HTRF detection was achieved using europium crypate-labeled anti-Ig monoclonal antibody (1 nM final) and allophycocyanin (APC) labeled anti-His monoclonal antibody (20 nM final). Antibodies were diluted in HTRF detection buffer and 5 μl was dispensed on top of binding reaction.", "key": {"[1]": {"details": "Table 8, Compound No. 1 variant macrocyclic peptides"}}, "note": "Read-outs that look alike come from different tables or passages of the source. Positions of bridges follow the written chain, without caps; N, C: chain ends. Non-standard residues stand in square brackets, D forms with d. Residues, ends and D or L forms follow the SMILES beside them. PEG12 = NCCOCCOCCOCCOCCOCCOCCOCCOCCOCCOCCOCCOCCC(=O)O; Phe(4-Br) = N[C@@H](Cc1ccc(Br)cc1)C(=O)O; NMeF = CN[C@@H](Cc1ccccc1)C(=O)O; NMeNle = CCCC[C@H](NC)C(=O)O; NMeA = CN[C@@H](C)C(=O)O; Sar = CNCC(=O)O", "data": [{"molecule": "CCCC[C@H]1C(=O)N(C)[C@@H](CCCC)C(=O)N[C@@H](CCCNC(=N)N)C(=O)N[C@H](C(=O)NCC(N)=O)CSCC(=O)N[C@@H](Cc2ccccc2)C(=O)N(C)[C@@H](C)C(=O)N[C@@H](CC(N)=O)C(=O)N2CCC[C@H]2C(=O)N[C@@H](Cc2cnc[nH]2)C(=O)N[C@@H](CC(C)C)C(=O)N(C)CC(=O)N[C@@H](Cc2c[nH]c3ccccc23)C(=O)N[C@@H](CO)C(=O)N[C@@H](CCSC)C(=O)N1C", "note": "[Compound No. 61] ({CH2CO}-F[NMeA]NPHL[Sar]WSM[NMeNle][NMeNle]RCG-NH2; thioether N-14)", "values": [{"measurement": "IC50", "setting": "[1]", "result": 0.031, "unit": "µM"}]}, {"molecule": "CCCC[C@H]1C(=O)N(C)[C@@H](CCCC)C(=O)N[C@@H](CCCNC(=N)N)C(=O)N[C@H](C(=O)NCC(N)=O)CSCC(=O)N[C@@H](Cc2ccc(Br)cc2)C(=O)N(C)[C@@H](C)C(=O)N[C@@H](CC(N)=O)C(=O)N2CCC[C@H]2C(=O)N[C@@H](Cc2cnc[nH]2)C(=O)N[C@@H](CC(C)C)C(=O)N(C)CC(=O)N[C@@H](Cc2c[nH]c3ccccc23)C(=O)N[C@@H](CO)C(=O)N[C@@H](Cc2c[nH]c3ccccc23)C(=O)N1C", "note": "[Compound No. 34] ({CH2CO}-[Phe(4-Br)][NMeA]NPHL[Sar]WSW[NMeNle][NMeNle]RCG-NH2; thioether N-14)", "values": [{"measurement": "IC50", "setting": "[1]", "result": 0.004, "unit": "µM"}]}, {"molecule": "CCCC[C@H]1C(=O)N(C)CC(=O)N[C@@H](CC(=O)O)C(=O)N[C@@H](C(C)C)C(=O)N(C)[C@@H](Cc2ccccc2)C(=O)N[C@@H](Cc2ccc(O)cc2)C(=O)N(C)CC(=O)N[C@@H](Cc2c[nH]c3ccccc23)C(=O)N[C@@H](Cc2ccc(O)cc2)C(=O)N[C@@H](CC(C)C)C(=O)N[C@H](C(=O)NCC(=O)NCCOCCOCCOCCOCCOCCOCCOCCOCCOCCOCCOCCOCCC(N)=O)CSCC(=O)N[C@@H](Cc2ccccc2)C(=O)N(C)[C@@H](Cc2ccccc2)C(=O)N1C", "note": "[Compound No. 118] ({CH2CO}-F[NMeF][NMeNle][Sar]DV[NMeF]Y[Sar]WYLCG[PEG12]-NH2; thioether N-13)", "values": [{"measurement": "IC50", "setting": "Table 10, Compound No. 116 variant macrocyclic peptides", "result": 0.003, "unit": "µM"}]}, {"molecule": "CCCC[C@H]1C(=O)N(C)CC(=O)N[C@@H](CC(=O)O)C(=O)N[C@@H](C(C)C)C(=O)N[C@@H](Cc2ccccc2)C(=O)N[C@@H](Cc2ccc(O)cc2)C(=O)N(C)CC(=O)N[C@@H](Cc2c[nH]c3ccccc23)C(=O)N[C@@H](Cc2ccc(O)cc2)C(=O)N[C@@H](CC(C)C)C(=O)N[C@H](C(=O)NCC(N)=O)CSCC(=O)N[C@@H](Cc2ccccc2)C(=O)N(C)[C@@H](Cc2ccccc2)C(=O)N1C", "note": "[Compound No. 82] (HELM PEPTIDE1{[O=C(C[*:3])[*:2]].F.[meF].[CCCC[C@@H](C(=O)[*:2])N(C)[*:1]].[Sar].D.V.F.Y.[Sar].W.Y.L.C.G.[am]}$PEPTIDE1,PEPTIDE1,1:R3-14:R3$$$V2.0)", "values": [{"measurement": "IC50", "setting": "Table 9, Compound No. 71 variant macrocyclic peptides", "result": 0.047, "unit": "µM"}]}, {"molecule": "CCCC[C@H]1C(=O)N(C)[C@@H](CCCC)C(=O)N[C@@H](CCCNC(=N)N)C(=O)N[C@H](C(=O)NCC(N)=O)CSCC(=O)N[C@@H](Cc2ccccc2)C(=O)N(C)[C@@H](C)C(=O)N[C@H](CC(N)=O)C(=O)N2CCC[C@H]2C(=O)N[C@@H](Cc2c[nH]cn2)C(=O)N[C@@H](CC(C)C)C(=O)N(C)CC(=O)N[C@@H](Cc2c[nH]c3ccccc23)C(=O)N[C@@H](CO)C(=O)N[C@@H](Cc2c[nH]c3ccccc23)C(=O)N1C", "note": "[Compound No. 42] ({CH2CO}-F[NMeA][dN]PHL[Sar]WSW[NMeNle][NMeNle]RCG-NH2; thioether N-14)", "values": [{"measurement": "IC50", "setting": "[1]", "result": "> 10", "unit": "µM"}]}, {"molecule": "CCCC[C@H]1C(=O)N(C)[C@@H](CCCC)C(=O)N[C@@H](CCCNC(=N)N)C(=O)N[C@@H](C(=O)NCC(N)=O)CSCC(=O)N[C@@H](Cc2c[nH]c3ccccc23)C(=O)N(C)[C@@H](C)C(=O)N[C@@H](CC(N)=O)C(=O)N2CCC[C@H]2C(=O)N[C@@H](Cc2cnc[nH]2)C(=O)N[C@@H](CC(C)C)C(=O)N(C)CC(=O)N[C@@H](Cc2c[nH]c3ccccc23)C(=O)N[C@@H](CO)C(=O)N[C@@H](Cc2c[nH]c3ccccc23)C(=O)N1C", "note": "[Compound No. 25] ({CH2CO}-W[NMeA]NPHL[Sar]WSW[NMeNle][NMeNle]R[dC]G-NH2; thioether N-14)", "values": [{"measurement": "IC50", "setting": "[1]", "result": 0.027, "unit": "µM"}]}]}
